Results on 6 compounds are retold here after paper PMC6270892, “Penostatin Derivatives, a Novel Kind of Protein Phosphatase 1B Inhibitors Isolated from Solid Cultures of the Entomogenous Fungus Isaria tenuipes” (Molecules, 2014).

Like-named read-outs stand apart in the source and are kept apart here. Where only a bound is given, the exact number is not on record here.

Assay [1] addresses T1, PTP1B (Homo sapiens, UniProt P18031).
T1 sequence (P18031 1-435): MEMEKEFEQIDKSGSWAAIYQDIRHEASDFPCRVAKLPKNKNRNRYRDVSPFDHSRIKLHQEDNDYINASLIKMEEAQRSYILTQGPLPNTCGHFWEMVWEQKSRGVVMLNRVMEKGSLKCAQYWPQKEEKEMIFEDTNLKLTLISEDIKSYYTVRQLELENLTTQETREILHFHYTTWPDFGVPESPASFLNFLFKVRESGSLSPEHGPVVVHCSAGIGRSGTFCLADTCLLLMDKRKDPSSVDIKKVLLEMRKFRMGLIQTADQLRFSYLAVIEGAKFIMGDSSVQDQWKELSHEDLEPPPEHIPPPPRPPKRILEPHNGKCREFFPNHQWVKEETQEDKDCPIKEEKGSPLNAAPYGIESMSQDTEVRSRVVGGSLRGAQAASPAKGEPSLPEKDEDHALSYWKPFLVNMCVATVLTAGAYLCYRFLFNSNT
Description: PTP1B inhibition assay (pNPP hydrolysis / Malachite Green). The format is biochemical. The settings on record: for selectivity between PTP1B and LAR: PTP1B versus LAR, in words; for IC50: mean ± SD of three replicates. As for the experimental part: PTP1B activity was measured as the rate of hydrolysis of p-nitrophenyl phosphate (pNPP) in a 96-well microtiter plate format. […] Inhibitors were added in DMSO at 100 times the final concentration. PTP1B activity was measured as the rate of inorganic phosphate released upon hydrolysis of the IR phosphopeptide, TRDIpYETDpYpYRK, using a Malachite Green method. The enzyme activity was estimated by measuring the absorbance at 405 nm with appropriate corrections. Each experiment was performed either in triplicate, and IC50 data were derived from three independent experiments.
Calculations. PTPase activities, based on a potassium phosphate standard curve, were expressed as nanomoles of phosphate released/min/mg protein. Inhibition of recombinant h-PTP1B by test compounds was calculated as percent of phosphatase control. A four-parameter nonlinear logistic regression of PTPase activities using SAS release 6.08, PROC NLIN, was used for determining IC50 values of the test compounds.

The target of another assay is LAR (Homo sapiens, UniProt P10586). Description: LAR phosphatase inhibition assay. The format is biochemical. The procedure:
PTP1B activity was measured as the rate of hydrolysis of p-nitrophenyl phosphate (pNPP) in a 96-well microtiter plate format. Standard assays were conducted at room temperature in a total volume of 0.2 mL that contained HEPES buffer (50 mM, pH 7.2), NaCl (50 mM), EDTA (1 mM), DTT (1 mM), bovine serum albumin (1 mg/mL), pNPP (at various concentrations, Km) 1.4 (0.03 mM), and PTP1B (35 ng/mL). Sodium orthovanadate was used as the positive control. Inhibitors were added in DMSO at 100 times the final concentration. PTP1B activity was measured as the rate of inorganic phosphate released upon hydrolysis of the IR phosphopeptide, TRDIpYETDpYpYRK, using a Malachite Green method. The enzyme activity was estimated by measuring the absorbance at 405 nm with appropriate corrections. Each experiment was performed either in triplicate, and IC50 data were derived from three independent experiments.
Activities of LAR were measured as described above except that the HEPES buffer (50 mM) was at pH 6.8, and the enzyme was added at a concentration of 10 μg/mL. Activity of calcineurin (from Sigma Chemical Co.) was assayed using 4-methylumbelliferyl phosphate (0.8 mM) as a substrate in an assay mixture that contained Tris-HCl buffer (40 mM, pH 8.6), NaCl (100 mM), CaCl2 (0.5 mM), DTT (0.5 mM), bovine serum albumin (0.1 mg/mL), calmodulin (50 nM), and calcineurin (25 nM). Sodium orthovanadate was used as the positive control. Fluorescence at 450 nm was monitored with excitation at 400 nm. The color was allowed to develop at room temperature for 30 min, and the sample absorbances were determined at 650 nm using a plate reader (Molecular Devices, Sunnyvale, CA, USA). Each experiment was performed either in triplicate, and IC50 data were derived from three independent experiments.
Calculations. PTPase activities, based on a potassium phosphate standard curve, were expressed as nanomoles of phosphate released/min/mg protein. Inhibition of recombinant h-PTP1B by test compounds was calculated as percent of phosphatase control. A four-parameter nonlinear logistic regression of PTPase activities using SAS release 6.08, PROC NLIN, was used for determining IC50 values of the test compounds. The reported IC50 values show significant fit to the regression curve (p < 0.05).

In assay [2] the test system is PTP1B. Further details: method as in PMID 20337577. As to conditions: cited from earlier work.
Setting [3] is: tested at 50 μg/mL, read-out: LAR inhibition.

LAR, sequence (P10586 30-1907, species assumed): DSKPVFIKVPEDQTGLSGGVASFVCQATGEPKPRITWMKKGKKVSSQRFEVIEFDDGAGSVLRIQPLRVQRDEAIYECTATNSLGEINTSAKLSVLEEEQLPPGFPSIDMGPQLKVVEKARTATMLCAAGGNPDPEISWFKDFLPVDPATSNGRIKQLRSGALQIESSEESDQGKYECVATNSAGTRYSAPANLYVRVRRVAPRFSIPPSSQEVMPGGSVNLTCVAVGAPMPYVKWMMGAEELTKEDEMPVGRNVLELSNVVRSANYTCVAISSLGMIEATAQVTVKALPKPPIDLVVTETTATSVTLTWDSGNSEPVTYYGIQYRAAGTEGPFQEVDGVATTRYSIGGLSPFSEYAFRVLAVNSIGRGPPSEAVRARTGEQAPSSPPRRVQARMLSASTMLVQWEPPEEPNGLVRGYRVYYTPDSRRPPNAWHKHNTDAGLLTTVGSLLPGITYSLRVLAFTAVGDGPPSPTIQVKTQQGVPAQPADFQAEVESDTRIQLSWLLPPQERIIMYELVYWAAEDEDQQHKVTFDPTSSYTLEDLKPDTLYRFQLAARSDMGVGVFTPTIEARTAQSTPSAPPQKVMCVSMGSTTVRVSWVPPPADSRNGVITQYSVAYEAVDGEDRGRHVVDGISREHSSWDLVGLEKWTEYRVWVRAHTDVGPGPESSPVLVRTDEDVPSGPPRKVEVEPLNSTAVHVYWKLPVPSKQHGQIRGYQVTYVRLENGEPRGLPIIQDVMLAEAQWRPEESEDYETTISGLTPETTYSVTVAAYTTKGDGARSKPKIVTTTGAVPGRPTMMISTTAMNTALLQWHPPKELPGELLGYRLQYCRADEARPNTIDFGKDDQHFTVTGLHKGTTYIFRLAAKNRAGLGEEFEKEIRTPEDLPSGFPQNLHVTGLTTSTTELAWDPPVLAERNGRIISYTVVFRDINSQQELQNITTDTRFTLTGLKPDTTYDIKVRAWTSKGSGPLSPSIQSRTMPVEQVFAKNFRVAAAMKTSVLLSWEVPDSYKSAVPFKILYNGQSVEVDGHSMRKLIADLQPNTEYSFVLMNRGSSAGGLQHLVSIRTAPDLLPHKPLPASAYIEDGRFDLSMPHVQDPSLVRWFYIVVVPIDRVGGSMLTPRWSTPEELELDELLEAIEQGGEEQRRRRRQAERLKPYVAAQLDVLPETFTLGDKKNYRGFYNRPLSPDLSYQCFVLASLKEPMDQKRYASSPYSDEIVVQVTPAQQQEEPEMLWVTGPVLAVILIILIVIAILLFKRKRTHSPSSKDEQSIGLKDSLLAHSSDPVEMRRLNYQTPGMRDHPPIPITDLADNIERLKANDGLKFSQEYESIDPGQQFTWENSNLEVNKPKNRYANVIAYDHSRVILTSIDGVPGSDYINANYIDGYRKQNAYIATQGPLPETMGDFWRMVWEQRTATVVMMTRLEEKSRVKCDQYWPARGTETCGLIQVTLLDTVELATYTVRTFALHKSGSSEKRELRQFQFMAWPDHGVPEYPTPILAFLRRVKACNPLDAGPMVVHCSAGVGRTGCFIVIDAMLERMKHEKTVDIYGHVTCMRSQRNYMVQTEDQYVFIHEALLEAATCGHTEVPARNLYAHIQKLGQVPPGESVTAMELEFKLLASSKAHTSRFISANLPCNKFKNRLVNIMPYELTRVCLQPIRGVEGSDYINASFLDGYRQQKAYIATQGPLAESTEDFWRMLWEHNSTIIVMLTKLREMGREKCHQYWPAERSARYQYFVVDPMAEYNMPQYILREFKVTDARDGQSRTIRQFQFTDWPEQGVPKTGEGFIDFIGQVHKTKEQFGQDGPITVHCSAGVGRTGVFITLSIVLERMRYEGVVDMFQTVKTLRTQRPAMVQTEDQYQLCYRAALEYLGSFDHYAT

As to `CCCCCCC/C=C/[C@@H]1O[C@@]2(O)C(=O)C=C3C=CC[C@H]3[C@@H]2C=C1C` [Compound 1, penostatin J], at PTP1B [1], the “selectivity between PTP1B and LAR” value is “significant selectivity”; the IC50 came to 12.5 ± 0.9 µM. Further, the IC50 at LAR (setting [3]) is over 146 µM.

Regarding `CCCCCCC/C=C/[C@@H]1O[C@H]2C(=O)C=C3C=CC[C@H]3[C@@H]2C=C1C` [Compound 2, penostatin C], on PTP1B [1], the “selectivity between PTP1B and LAR” value was “significant selectivity”. For the same compound, the IC50 on PTP1B [1] turned out to be 0.37 ± 0.05 µM; at LAR (mean ± SD of three replicates, read-out: IC50 (μM) LAR), 53.3 ± 4.06 µM.

Take `CCCCCCC/C=C/[C@@H]1O[C@H]2C(=O)C=C3C[C@H](O)C[C@H]3[C@@H]2C=C1C` [Compound 3, penostatin A]: the results for the IC50 on PTP1B [1] and at LAR (setting [3]) were 15.9 ± 2.49 µM and over 145 µM, respectively.

Consider `CCCCCCC/C=C/[C@@H]1O[C@H]2C(=O)C=C3C[C@@H](O)C[C@H]3[C@@H]2C=C1C` [Compound 4, penostatin B], for which the IC50 against PTP1B [1] was 33.7 ± 7.33 µM; at LAR (setting [3]), over 145 µM.

For `CC(C)[C@@H](CC[C@@H](C)[C@H]1CC[C@H]2[C@@H]3[C@H](O)C[C@H]4C[C@@H](NCCCNCCCCNCCCN)CC[C@]4(C)[C@H]3CC[C@]12C)OS(=O)(=O)O` [MSI-1436], the IC50 with PTP1B [2] was […].

With `Cc1cc(-c2c3ccccc3c(Br)c3sc(C)c(C)c23)cc(C)c1O[C@H](Cc1ccccc1)C(=O)O` [ertiprotafib], the IC50 with PTP1B [2] was 1.6 µM.
